Measured values as given in patent publication US20130150399A1, “INHIBITORS OF THE UNFOLDED PROTEIN RESPONSE AND METHODS FOR THEIR USE” (The Board of Trustees of the Leland Stanford Junior …, priority 2006, published 2013).
“And” between values parts separate entries of the source, which are not always exact repeats. Identical values can stand only once.

How the values were obtained:
[1] = tested on: PANC1 pancreatic adenocarcinoma cells; assay: PANC1 tumor growth in vivo; design: species or system nude mice; details: 60 mg/kg ip bolus every 48 hours, 5 doses
Description: Dose: 60 mg/kg ip bolus injection every 48 hours. 5 total doses. 5-7 tumors per group. PANC1 pancreatic adenocarcinoma cell line.
PANC1 pancreatic adenocarcinoma cells were implanted subcutaneously into nude mice. Mice were then given a bolus injection of one of the inventive irestatins (1401, 9337, 3611 or 9389) at a dose of 60 mg/kg every 48 hours for a total of 5 doses, with 5-7 tumors being treated per group.

XBP1-luciferase reporter = assay: XBP-luciferase reporter high throughput screen / IRE IC50 (tunicamycin + thapsigargin induced); type: cell-based, human
Description: Specifically, HT1080 fibrosarcoma cells stably transfected with the unspliced XBP-1-luciferase reporter construct (3000/well) were plated onto a solid white 384 well microplate with a multidrop dispenser (40 μL per well). The plates were then placed into an automated incubator. After 24 hours of growth, a mixture of tunicamycin (1 μg/ml) and thapsigargin (100 nM) inducers were added, and candidate compounds were then added to the plates. After 24 hours, luciferase reagent (10 μl) was added to each well and the plates were read in a Molecular Devices Analyst GT (0.2 second read per well).
As described above in Example 2, HT1080 fibrosarcoma cells stably expressing the XBP-luciferase reporter were plated in a 384 well microplate (4000 cells/well). After 24 hours, cells were treated with a mixture of tunicamycin (4 μg/ml) and thapsigargin (0.4 μM), followed by the addition of one compound per well (10 μM). We screened a total of 66,000 diverse molecules obtained from Specs, Chembridge and ChemRX. Twenty-four hours post-induction, BriteGlo luciferase substrate (10 μl) was added to each well and the signal intensity determined in a plate reader (0.2 s read per well). […] We retested 431 compounds from the initial screen, and selected 58 compounds for additional analysis, including calculation of IC50 values and inhibition of a CMV-luciferase reporter.
Compounds of the screening library with structural similarity to compound 9389 (see Table 1) have been identified and in some cases further assayed for inhibitory activity. Compounds listed with “IC50” values were assayed secondarily after initially being identified in the high throughput screen. Each value represents a separate calculation of reporter inhibition based upon the high throughput robotic screening platform. The actual IC50 values are calculated and represent an estimate of the potency of each compound. This assay is not considered to be accurate below a concentration of 10 nM. Compounds classified with “mild” activity inhibited the XBP1-luciferase reporter by 10-30%. Compounds classified with “moderate” activity inhibited the XBP1-luciferase reporter by 30-75%. Compounds classified with “potent” activity inhibited the XBP1-luciferase reporter by 75-100%. Compounds classified with “undetected” activity inhibited the XBP1-luciferase reporter by less than 10% under the defined conditions.

XBP-1 splicing = assay: Bioluminescence imaging of XBP-1 splicing in HT1080 XBP-1s-luciferase tumors; type: in vivo; details: for toxicity: nude mice
Description: Several nude mice were implanted with HT1080 cells stably expressing a XBP-1s-luciferase construct and XBP-1 activation was examined using bioluminescence imaging. Imaging was performed using the In Vivo Imaging System (IVIS, Xenogen Corporation, Alameda, Calif.) in the Stanford Center for Innovation in In Vivo Imaging (SCI3). This device consists of a cooled CCD camera mounted on a light-tight specimen chamber.

[2] = tested on: 5×-UPRE luciferase reporter (XBP-1s); assay: 5×-UPRE luciferase reporter assay, HT1080 cells; type: cell-based, human; details: Tm alone
Description: (§1) HT1080 cells stably expressing the XBP-luciferase construct were grown in 60 mm dishes to 60-70% confluency. Following hypoxia treatment, cells were washed twice with PBS, lysed in 400 μl 1× reporter lysis buffer (RLB) (Promega, Madison Wis.) for 30 min at 24° C. Lysates (100 μl) were mixed with an equal volume of luciferase substrate (Promega), and assayed using a luminometer. For 5×-UPRE-luciferase reporter assays, cells were co-transfected with the appropriate reporter plasmid and a control plasmid (pSV40-beta-gal) using Lipofectamine 2000 (Invitrogen, San Diego, Calif.). Twenty-four hours after transfection, fresh media was added, and cells were treated with Tm or shifted to hypoxia. After treatment, cells were lysed in 1×RLB and analyzed for luciferase activity as described above. Beta-galactosidase activity was determined using the beta-galactosidase enzyme assay system (Promega).
A. XBP-luciferase reporter construct. Firefly luciferase was inserted downstream of the IRE1α splice site in human XBP-1 to enable the conditional translation of luciferase under ER stress in an IRE1α-dependent manner. B. Selective inhibition of the XBP-luciferase reporter by irestatin 9389. HT1080 human fibrosarcoma cells stably expressing the XBP-luciferase reporter or CMV-luciferase were cultured in the presence of Tm (4 μg/ml) and Tg (0.4 μM) and irestatin 9389 at the indicated concentrations. After 24 hours, luciferase activity was analyzed in an automated plate reader. For each cell line, values are expressed as the percent inhibition of the median for Tm/Tg-treated wells, corrected for background. C. Structure of irestatin 9389. […] Values are expressed as the fold increases over uninduced levels. […] Cells were harvested, lysed, and analyzed by immunoblotting with antisera specific for HIF-1α (top), XBP-1s (middle) or actin (bottom). […] Total RNA was analyzed by Northern blotting using radiolabeled probes specific for P58^IPK or DER-1. […]
Since these assays employed a chimeric XBP-luciferase substrate, we next determined whether irestatin 9389 could inhibit the function of endogenous XBP-1s. […]

Grp78 = assay: Western immunoblot of Grp78, HT1080 cells; type: cell-based, human; details: Tm (5 μg/ml) for 8 hours, positive control
Description: Cells (2×10^6) were cultured in 10-cm dishes, collected using a cell scraper at 4° C., and lysed by addition of 150 μl cell lysis buffer [50 mM Tris pH 7.4, 150 mM NaCl, 10% glycerol, 0.5% Triton X-100. 0.5% NP-40, 2 mM Na3VO4, 20 mM beta-glycerophosphate, 10 mM NaF, 1 mM DTT, 1 mM PMSF). Lysates were centrifuged for 5 min at 10,000×g, and proteins (˜40 μg) were resolved by SDS-PAGE followed by semi-dry transfer to nitrocellulose membranes. Membranes were blocked in TBS-5% milk supplemented with 0.1% Tween-20. The blots were then probed overnight with relevant antibodies, washed, and incubated for 2 hours with species-specific secondary antibodies conjugated to horseradish peroxidase. After washing in block solution, immunoreactive material was detected by enhanced chemiluminescence (SuperSignal West Dura Extended, Pierce, Inc., Rockville, Ill.).
HT1080 cells were exposed to DMSO vehicle (lane 1), irestatin 9389 (2.5 μM; lane 2) for 16 hours or Tm (5 μg/ml; lane 3) for 8 hours. Following treatments, cells were harvested, lysed, and analyzed by immunoblotting using anti-Grp78 antibody (top) or anti-actin (bottom) as a loading control. […] Cell lysates were analyzed by Western immunoblotting using anti-IRE1α (bottom) or anti-phospho-IRE1α antibodies (top). […] Lysates were analyzed by Western blot using antisera specific for phospho-JNK1 (top) or total JNK1 (bottom). […]

XBP-luciferase reporter = XBP-luciferase reporter assay under Tm or hypoxia, HT1080 cells; type: cell-based, human; details: Tm alone, 24 hours
Description: as §1
A. XBP-luciferase reporter construct. Firefly luciferase was inserted downstream of the IRE1α splice site in human XBP-1 to enable the conditional translation of luciferase under ER stress in an IRE1α-dependent manner. B. Selective inhibition of the XBP-luciferase reporter by irestatin 9389. HT1080 human fibrosarcoma cells stably expressing the XBP-luciferase reporter or CMV-luciferase were cultured in the presence of Tm (4 μg/ml) and Tg (0.4 μM) and irestatin 9389 at the indicated concentrations. After 24 hours, luciferase activity was analyzed in an automated plate reader. For each cell line, values are expressed as the percent inhibition of the median for Tm/Tg-treated wells, corrected for background. C. Structure of irestatin 9389. D. XBP-luciferase reporter assay. HT1080 cells stably expressing the XBP-luciferase reporter were exposed to Tm (4 μg/ml) for 24 hours or hypoxia (0.1% oxygen) for 24 or 48 hours, in the presence of DMSO or irestatin 9389 (1 μM) as indicated. Values are expressed as the fold increases over uninduced levels. E. 5×-UPRE reporter assay. HT1080 cells were co-transfected with 5×-UPRE luciferase and SV40-beta-gal reporter plasmids, followed by exposure to Tm or hypoxia as in D. For each condition, luciferase activity is normalized to beta-galactosidase expression levels as an internal control for transfection efficiency. F. Western immunoblot analysis of XBP-1s. HT1080 cells were left untreated (lane 2) or exposed to Tm (4 μg/ml) for 20 hours in the presence of DMSO vehicle (lane 1) or the indicated irestatins (2 μM; lanes 3-6). […] Cells were harvested, lysed, and analyzed by immunoblotting with antisera specific for HIF-1α (top), XBP-1s (middle) or actin (bottom). […] Total RNA was analyzed by Northern blotting using radiolabeled probes specific for P58^IPK or DER-1. […]

CN1CCN(c2ccc3sc4ccccc4c(=O)c3c2)CC1 [Compound 1401]
tumor growth [1]: significant tumor growth was observed in untreated mice, but not in mice treated with the irestatins

Cc1cccc(NC(=O)c2sc3nc(C)cc(C(F)(F)F)c3c2N)n1 [Compound 2750]
% Inh (XBP1-luciferase reporter; Assay HTS, Conc 10 uM): 16.6%

Nc1ccc(-c2ccc(-c3ccc(N)cc3)c(N)c2)cc1 [Compound 3281]
toxicity (XBP-1 splicing; 50 mg/kg IP): no apparent toxicity | XBP-1 splicing activity (bioluminescence) (XBP-1 splicing; 50 mg/kg IP, 8 hrs after injection): undetectable | XBP-1 splicing (bioluminescence) (XBP-1 splicing; 8 hrs after a second injection): again inhibited

Cc1cc2nc(NC(=O)CCCC(=O)O)sc2cc1C [Compound 3611]
tumor growth [1]: significant tumor growth was observed in untreated mice, but not in mice treated with the irestatins

Cc1csc(NC(=O)c2sc3nc4c(c(C(F)(F)F)c3c2N)CCCC4)n1 [Compound 4335]
% Inh (XBP1-luciferase reporter; Assay IRE IC50, Conc 20 uM): 70.4%

Cc1csc(NC(=O)c2sc3nc4c(c(C(F)(F)F)c3c2N)CCC4)n1 [Compound 5500]
% Inh (XBP1-luciferase reporter; Assay IRE IC50, Conc 20 uM): 104.4% | toxicity (XBP-1 splicing; 50 mg/kg IP): no apparent toxicity | effect on XBP-1 splicing (bioluminescence) (XBP-1 splicing; 50 mg/kg IP, at the time points assayed): did not have any affect on XBP-1 splicing

N#Cc1cccc(NC(=O)c2sc3nc4c(c(C(F)(F)F)c3c2N)CCC4)c1 [Compound 8878]
% Inh (XBP1-luciferase reporter; Assay IRE IC50, Conc 20 uM): 72.4% and 50.0%

Cc1cn2cc(-c3ccc4ccccc4c3)nc2s1 [Compound 9337]
tumor growth [1]: significant tumor growth was observed in untreated mice, but not in mice treated with the irestatins

tunicamycin [Tm, reference compound]
increase of 5×-UPRE luciferase activity over untreated cells [2]: ~12 fold | Grp78 levels (Grp78): robustly induced Grp78 | increase of XBP-luciferase activity (XBP-luciferase reporter): 60 fold
